Counter-ions that a name gives are not always drawn.

For orientation: melting point means the temperature, or range, at which the solid turns liquid. Consider `NCCCN1CN(c2ccccc2)C2(CCN(C3(c4ccccc4)CCCCCC3)CC2)C1=O` (as salt: HCl), for which the melting point was 150 to 154 °C.

`CC1(N2CCC3(CC2)C(=O)N(CCN2CCCCC2)CN3c2ccccc2)CCCCCC1` (as salt: HCl) gave a melting point of 50 to 53 °C.

In the case of `CC1(N2CCC3(CC2)C(=O)NCN3c2ccccc2)CCC=CCC1` (as salt: hydrochloride), the melting point fell in the range of 251 to 254 °C. On to `CC1(N2CCC3(CC2)C(=O)N(CCCN)CN3c2ccccc2)CCCCCC1` (as salt: HCl), for which the melting point was in the range of 216 to 220 °C. Compound `O=C1N(CCN2CCCCC2)CN(c2ccccc2)C12CCN(C1(c3ccccc3)CCCCCC1)CC2` (as salt: HCl) displayed a melting point of 174 to 178 °C.

For the origin of these results see patent publication US6465478B1 (dated 2002).
